Experimental findings from patent publication US9393249B2, “Antimicrobial composition” (INSTITUTE OF TECHNOLOGY SLIGO, priority 2008, dated 2016) are described below.

SMILES strings stand for the structures.

In one data set the test system is Candida albicans. The data set is described as follows: Well/disc diffusion inhibition assay of combinations. It counts as cell-based. The settings on record: 50 μl A^3IS + 50 μg agent versus 100 μl A^3IS alone; FIG. 19. As for the experimental part:
Various combinations of A^3IS (from Example 3) and antibiotics/antifungal agents were tested against a placebo and A^3IS alone using a well/disc diffusion method. […] Well/Disc Diffusion Methods for Measurement of Microbial Inhibition: Agar plates were inoculated by swabbing overnight culture onto the plate surface. Plates were allowed to stand at room temperature for 15 minutes before use. Wells 8.2 mm diameter were bored into the surface of the agar. 100 μl of samples (a) to (c) was placed into each well. The samples diffuse into the agar around the well and are assayed for an ability to produce a zone of inhibition. Plates are incubated for 24, 48 or 72 hrs and zones of inhibition are measured. The diameter of zones, including the diameter of the well (8.2 mm) was recorded.

The next data set concerns S. aureus NCIMB 9587. The data set is described as follows: Checkerboard synergy test. The class given is cell-based, Staphylococcus aureus. Conditions: MIC as two-fold dilution fraction of each agent's final dilution (A^3IS 3%; antibiotics 1:100 to 1:3,200,000); overnight 35° C. As for the experimental part: Stock solutions were prepared according to published standards (CLSI (Clinical and Laboratory Standards Institute): Performance Standards for Antimicrobial Susceptibility testing. Fifteenth Informational Supplement. CLSI document M100-S15. Pennsylvania USA 2005, 19087-1898)
Synergy tests were performed in 96-well microtiter plates containing the A^3IS (from Example 3)/antibiotic combinations in two fold dilutions dispensed in a checkerboard fashion on the day of the assay. Each well contained 0.1 mL of A^3IS/antimicrobial combinations. A suspension of S. aureus test culture was prepared from an overnight broth culture to yield a final inoculum of approximately 3×10^5 to 5×10^5 CFU/mL. Twenty microliters of this suspension was added to all but the sterility control wells. MICs were read after overnight incubation at 35° C. Growth and sterility controls were included in each plate. Each isolate was tested twice. Growth was determined by visually examining each well for evidence of turbidity.
For the first clear well in each row of the microtiter plate containing both antimicrobial agents, the fractional inhibitory concentration (FIC) was calculated as follows: FIC of drug A (FICA)=MIC of drug A in combination/MIC of drug A alone, and the FIC of drug B (FICB)=MIC of drug B in combination/MIC of drug B alone.

Data set [1] has as its system clinical isolates of Mastitis causing Staphylococcus aureus. The data set can be described thus: Inhibition assay (3 day repeats) on mastitis clinical isolates. It counts as cell-based. The settings on record: FIG. 11b. The method, then:
• Escherichia coli (NCIMB 8545), Staphylococcus aureus (NCIMB 9518) and Pseudomonas aeruginosa (NCIMB 8626) are grown on nutrient agar or in nutrient broth for 24 hrs at 37° C. • Candida albicans (NCIMB 3179) and Saccharomyces cerevisiae are grown on sabaroud dextrose agar or in sabaroud dextrose broth for 24 hrs at 37° C. • Propionibacterium acnes (P. acnes ATCC/NTC 11827) is grown anaerobically on blood agar or in nutrient broth for 72 hrs at 37° C. • 22 isolates of Staphylococcus aureus from clinical mastitis obtained from Sligo regional Veterinary Laboratories are grown on nutrient agar or in nutrient broth for 24 hrs at 37° C. • For testing conducted in the Sligo Regional General Hospital; five Beta haemolytic Streptococci Group A clinical isolates are grown on blood agar or in nutrient broth for 24 hrs at 37° C. • Campylobacter coli (NCTC 11366) is grown on brain heart infusion agar or in brain heart infusion broth for 72 hrs at 37° C. • Campylobacter jejuni (NCTC 11322) and three clinical isolates are grown on brain heart infusion agar or in brain heart infusion broth for 72 hrs at 37° C. • MRSA (ATCC 43300) and seven clinical isolates are grown on nutrient agar or in brain heart infusion broth for 72 hrs at 37° C. • Laboratory mould isolates are grown on sabaroud dextrose agar or in sabaroud dextrose broth for 48 hrs at 25° C. • Botrytis cinerea is grown on sabaroud dextrose agar or in sabaroud dextrose broth for 48 hrs at 25° C.
Agar plates are inoculated by swabbing overnight culture onto the plate surface. Plates are allowed to stand at room temperature for 15 minutes before use. Wells 8.2 mm diameter are bored into the surface of the agar. One hundred and eighty μl of sample is placed into each well. The samples diffuse into the agar around the well and are assayed for an ability to produce a zone of inhibition. Plates are incubated for 24, 48 or 72 hrs and zones of inhibition are measured using an Autodata automatic zone reader. The diameter of zones, including the diameter of the well (8.2 mm), is recorded. […]

Another data set concerns L929 cells. The data set can be described thus: ISO 10993-5 agar overlay cytotoxicity (neutral red). The settings on record: 24 hrs. As for the experimental part: ISO 10993, agar overlay tests for cytotoxicity: in vitro method is also used, employing L929 cells (mouse fibroblasts ECACC 85011425). In brief; a confluent monolayer of cells is incubated, this is then covered with a layer fresh medium (EMEM, 2 mM L-Glutamine, 5% FBS, 2% Penicillin-Streptomycin) containing 1.5 g/l of soft agar and allowed to solidify. One tenth of the surface is covered with test materials (previously described) and incubated for 24 hrs. Post incubation the test material is carefully removed and a vital stain (neutral red) in fresh media added. After incubation this is removed, the cells washed and then the dye extracted from the cells and quantified spectrophotometrically for cell viability.
Percent toxicity was calculated according to the formula: % Toxicity=1−(OD average of test material wells/average OD of corresponding control wells (sodium azide added))×100. Included in the assay are a 50% concentration of A^3IS, a range of concentrations of commercial silver containing gel and commercial zinc containing gel product, compared to sodium azide (positive control). […] For the agar overlay toxicity assay the amount of test materials used was similar to that used for the initial direct contact assays of 100 mg per well however the contact time was extended to 24 hrs.

Turning to `Clc1ccccc1C(c1ccccc1)(c1ccccc1)n1ccnc1` [Clotrimazole], the “effect of combination with hydrogen peroxide source (zone of inhibition)” value (“effect of combination … (zone of inhibition)” for short) with Candida albicans is listed as “effects going beyond a combination/additive effects with hydrogen peroxide”.
For `CO/N=C(\C(=O)N[C@@H]1C(=O)N2C(C(=O)O)=C(COC(N)=O)CS[C@H]12)c1ccco1` [Zinacef, Cefuroxime], the “MICs for A^3IS & antibiotics on S. aureus NCIMB 9587” value (“MICs for A^3IS & antibiotics” for short) with S. aureus NCIMB 9587 is reported as “½”.
Still for that read-out and setting: next, `CC1=C(C(=O)O)N2C(=O)[C@@H](NC(=O)[C@H](N)C3=CCC=CC3)[C@H]2SC1` [Velocef, Cefradine]: “¼”.
`[H]/N=C(/N)N[C@H]1[C@H](O)[C@@H](O)[C@H](O[C@@H]2O[C@@H](C)[C@](O)(C=O)[C@H]2O[C@@H]2O[C@@H](CO)[C@H](O)[C@@H](O)[C@@H]2NC)[C@@H](N/C(N)=N\[H])[C@@H]1O` [Streptomycin]: the “sensitivity of clinical isolate number 15” value (“sensitivity” below) in data set [1] is reported as “resistant”.
For the compound `Cc1onc(-c2c(F)cccc2Cl)c1C(=O)N[C@@H]1C(=O)N2[C@@H]1SC(C)(C)[C@@H]2C(=O)O` [Flucloxacillin], in the data set with S. aureus NCIMB 9587, the “MICs for A^3IS & antibiotics” value is recorded as “½”.
`Cc1cc(C2CCCCC2)n(O)c(=O)c1.NCCO` [Cyclopiroxalomine]: the “effect of combination … (zone of inhibition)” value with Candida albicans is “effects going beyond a combination/additive effects with hydrogen peroxide”.
With `O=C(N[C@H](CO)[C@H](O)c1ccc([N+](=O)[O-])cc1)C(Cl)Cl` [Chloramphenicol], in data set [1], the “sensitivity” value is “only mild sensitivity”.
Regarding `CC[C@H]1OC(=O)[C@H](C)[C@@H](O[C@H]2C[C@@](C)(OC)[C@@H](O)[C@H](C)O2)[C@H](C)[C@@H](O[C@@H]2O[C@H](C)C[C@H](N(C)C)[C@H]2O)[C@](C)(O)C[C@@H](C)C(=O)[C@H](C)[C@@H](O)[C@]1(C)O` [Erythrocin], in the data set with S. aureus NCIMB 9587, the “MICs for A^3IS & antibiotics” value is “½”.
On the same count and under the same terms, for `CC1(C)S[C@@H]2[C@H](NC(=O)[C@H](N)c3ccc(O)cc3)C(=O)N2[C@H]1C(=O)O` [Amoxicillin] the value was “¼”.
For the compound `[N-]=[N+]=[N-]` [sodium azide], the “% Toxicity” value with L929 cells came to 100%.
Regarding `CC(=O)N1CCN(c2ccc(OCC3COC(Cn4ccnc4)(c4ccc(Cl)cc4Cl)O3)cc2)CC1` (centres unmarked) [Ketoconazole], the “effect of combination … (zone of inhibition)” value with Candida albicans was “effects going beyond a combination/additive effects with hydrogen peroxide”.
On the same count and under the same terms, next, `CN(C/C=C/C#CC(C)(C)C)Cc1cccc2ccccc12` [Terbidifine]: “effects going beyond a combination/additive effects with hydrogen peroxide”.
Regarding `CC[C@H]1OC(=O)[C@H](C)[C@@H](O[C@H]2C[C@@](C)(OC)[C@@H](O)[C@H](C)O2)[C@H](C)[C@@H](O[C@@H]2O[C@H](C)C[C@H](N(C)C)[C@H]2O)[C@](C)(OC)C[C@@H](C)C(=O)[C@H](C)[C@@H](O)[C@]1(C)O` [KIacid], the “MICs for A^3IS & antibiotics” value with S. aureus NCIMB 9587 was “½”.
As to `CN[C@H](CC(C)C)C(=O)N[C@H]1C(=O)N[C@@H](CC(N)=O)C(=O)N[C@H]2C(=O)N[C@H]3C(=O)N[C@H](C(=O)N[C@H](C(=O)O)c4cc(O)cc(O)c4-c4cc3ccc4O)[C@H](O)c3ccc(c(Cl)c3)Oc3cc2cc(c3O[C@@H]2O[C@H](CO)[C@@H](O)[C@H](O)[C@H]2O[C@H]2C[C@](C)(N)[C@H](O)[C@H](C)O2)Oc2ccc(cc2Cl)[C@H]1O` [Vancomycin], the “sensitivity” value in data set [1] is “resistant”.
